A short description of the data set: Thermal decomposition on heating under nitrogen atmosphere. Format: physicochemical. The following applies: heating rate of 20K/min under nitrogen atmosphere. How it is done:
The crystalline form III decomposes above 270° C., when heated with a heating rate of 20K/min under nitrogen atmosphere.
The crystalline form IV decomposes at about 270° C. when heated at 20K/min under nitrogen atmosphere.

Drawing on US9150589B2, “Polymorphous forms III and IV of N-benzoyl—staurosporine” (NOVARTIS AG, priority 2009, dated 2015), this text covers decomposition temperature for two compounds.

With `CO[C@@H]1[C@H](N(C)C(=O)c2ccccc2)C[C@H]2O[C@]1(C)n1c3ccccc3c3c4c(c5c6ccccc6n2c5c31)C(=O)NC4` [crystalline form III, N-[(9S,10R,11R,13R)-2,3,10,11,12,13-hexahydro-10-methoxy-9-methyl-1-oxo-9,13-epoxy-1H,9H-diindolo[1,2,3-gh:3′,2′,1′-lm]pyrrolo[3,4-j][1,7]benzodiazonin-11-yl]-N-methylbenzamide], the decomposition temperature entry was “above 270 °C”.

As to `CO[C@@H]1[C@H](N(C)C(=O)c2ccccc2)C[C@H]2O[C@]1(C)n1c3ccccc3c3c4c(c5c6ccccc6n2c5c31)C(=O)NC4` [crystalline form IV, N-[(9S,10R,11R,13R)-2,3,10,11,12,13-hexahydro-10-methoxy-9-methyl-1-oxo-9,13-epoxy-1H,9H-diindolo[1,2,3-gh:3′,2′,1′-lm]pyrrolo[3,4-j][1,7]benzodiazonin-11-yl]-N-methylbenzamide], the decomposition temperature result is “about 270 °C”.
